Literature values as cited in patent US5945105A, “Peptides of the antigen Sm-D and their use, in particular for the diagnostics of systemic lupus erythematosus (SLE)” (Imtec Immundiagnostika GmbH, priority 1995, dated 1999).

Tested on: anti-SmD antibody-positive sera / SLE sera
Conditions: cited from earlier work; for anti-SmD antibody-positive sera that reacted with the peptide: 18 anti-SmD antibody-positive sera (immuno blotting); for positive reactions in the ELISA, SLE sera: 165 SLE sera

Substance | anti-SmD antibody-positive sera that reacted with the peptide [%] | positive reactions in the ELISA, SLE sera [%]
1-20: first region of the SmD protein, amino acids 1 through 20 (Barakat et al.) (MKLVRFLMKLSHETVTIELK; UniProt P62314 1-20, looked up, fragment) [Peptide 1-20] | 67 | 59
44-67: second region of the SmD protein, amino acids 44 through 67 (Barakat et al.) (KMTLKNREPVQLETLSIRGNNIRY; UniProt P62314 44-67, looked up, fragment) [Peptide 44-67] | 89 | 37
97-119: third region of the SmD protein, amino acids 97 through 119 (Barakat et al.) (GRGRGRGRGRGRGRGRGRGGPRR; UniProt P62314 97-119, looked up, fragment) [Peptide 97-119] | 33 | 1
